The source of these data is US20130143942A1, “METHODS OF CONTROLLING NEONICOTINOID RESISTANT APHIDS” (SYNGENTA CROP PROTECTION LLC, priority 2010, published 2013).

In series [1] the test system is neonicotinoid insecticide susceptible strain 4106A. The experiment in a line: leaf disc spray bioassay, aphid mortality 72 hours after treatment, susceptible strain. In kind it is in vivo. The settings on record: mixed age aphids on chinese cabbage leaf discs, sprayed in Potter Tower, susceptible strain 4106A (Rothamsted Research). How it is done: (§1) The following bioassay methodology was utilized to generate the data included in the table:
(§2) 5 cm leaf discs were taken from fully expanded chinese cabbage leaves and placed with the underside facing upwards onto water agar in 5 cm Petri dishes. The leaf discs are infested with between 30 and 40 mixed age aphids 24 hours prior to insecticide treatment. The leaf surface is sprayed with the appropriate test solutions in a Burkhard Potter Tower at an approximate water volume of 450 l/ha. Test containers are stored at 21° C., 60% RH and 16:8 light/dark. Aphids were assessed for mortality 72 hours after treatment.

The subject of series [2] is neonicotinoid insecticide resistant aphid strain. The series can be described thus: leaf disc spray bioassay, aphid mortality 72 hours after treatment, resistant strain. The series is classed as in vivo. Particulars: mixed age aphids on chinese cabbage leaf discs, sprayed in Potter Tower, resistant strain collected from peach orchard, Avignon region, 2009. On the procedure:
as §1, §2

In the case of `CCOC(=O)OC1=C(c2cc(C)ccc2C)C(=O)N[C@]12CC[C@@H](OC)CC2` [sprirotetramat, cis-3-(2,5-dimethylphenyl)-8-methoxy-2-oxo-1-azaspiro[4.5]dec-3-en-4-yl ethyl carbonate], in series [1], the “LC50 with 95% confidence limit, susceptible strain” value is listed as 0.88 (0.60-1.22) ppm. Further, in series [2], the “LC50 with 95% confidence limit, resistant strain” value was 1.58 (1.14-2.23) ppm.
